Data on 19 molecules can be found in patent US11078161B2, “Rock-inhibiting compound and uses thereof” (HITGEN INC., priority 2017, dated 2021).

SMILES strings stand for the structures. Bounds are passed on as bounds.

One assay has as its target ROCK2 (Homo sapiens, UniProt O75116). Kind of assay: Measurement of inhibitory activity against ROCK2 (ADP-Glo, S6K substrate). Type of assay: biochemical. As to conditions: read-out: ROCK2 (IC50 class). The source says: ROCK2 was capable of phosphorylating a substrate of polypeptide S6K (KRRRLASLR) by converting ATP to ADP. An ADP-Glo™ reagent was adopted to terminate this reaction and consume the remaining ATP. Moreover, a kinase detection reagent was introduced to ensure that ATP was further converted into a luminescent signal by an Ultra-Glo™ luciferase while convening ADP into ATP, allowing the kinase activity to be positively correlated with the intensity of the luminescent signal.
The inhibitory activity against ROCK2 was determined as follows.
(1) A detection buffer containing 40 mM Tris (pH 7.5), 20 mM MgCl2, 0.1% BSA(w/v) and 50 μM DTT was prepared.
(2) 12 μL of 2.5×0.1 μg/mL ROCK2 solution was added to a 96-well PCR plate.
(3) The 96-well PCR plate was added with 6 μL of a 6× compound solution and pre-incubated at 25° C. for 10 min.
(4) Then the 96-well PCR plate was further added with 12 μL of a mixed solution of a 2.5×37.5 μg/mL S6K substrate solution and a 12.5 μM ATP solution, and incubated at 30° C. for 60 min.
(5) 25 μL of the reaction mixture was transferred to a new 96-well PCR plate, mixed with 25 μL of the ADP-Glo™ reagent uniformly and incubated at 25° C. for 40 min to terminate the reaction.
(6) After the reaction was terminated, 40 μL of the reaction mixture was transferred to another 96-well PCR plate, mixed with 40 μL of the kinase detection reagent uniformly and incubated at 25° C. for 40 min.
(7) The luminescence signal was recorded for the calculation of the inhibitory rate.
The inhibitory activity of the above-prepared compounds against the ROCK2 was measured according to the above process, and the results were shown in Table 1, in which the compounds were ranked according to the IC50 value. Specifically, “+” indicated an IC50 value greater than 500 nM; “++” indicated an IC50 value less than 500 nM and greater than 100 nM; and “+++” indicated an IC50 value less than 100 nM.
(In general: In ADP-Glo the light output rises with the ADP produced.)

For assay [1], the system named is phosphorylation of the myosin light chain (T18/S19) of smooth muscle cells A7r5. Kind of assay: Detection of myosin light chain phosphorylation by In-Cell Western Blotting. Type of assay: cell-based. As to conditions: rat smooth muscle cells A7r5, 1 h incubation in serum-free medium; read-out: A7r5 (IC50 class, inhibition of myosin light chain phosphorylation). The protocol: ROCK2 was capable of altering the cytoskeleton by phosphorylating two amino acid sites (T18 and S19) on the myosin light chain. Smooth muscle cells A7r5 of rats were selected, inoculated into a 96 well black plate with a transparent bottom and cultured with DMEM containing 10% FBS. After cultured overnight, the cells were treated by serum starvation for 4 h and then incubated with respective compounds in serum-free medium for 1 h. The phosphorylation level of the myosin light chain was detected by In-Cell Western Blotting using a phspho-MLC-T18/S19-specific antibody and a secondary detection antibody. The untreated cells were used as positive control; the cells without undergoing primary antibody incubation were used as negative control; and total intracellular protein was used as an internal reference. The results were fitted by a non-linear regression curve with varying slope using GraphPad Prism 5.01 software to determine an IC50 value.
The detection of the inhibitory activity of the above-prepared compounds against the phosphorylation of the myosin light chain of smooth muscle cells A7r5 was performed according to the above process. The results were shown in Table 2, where the compounds were ranked according to the IC50 value.

For the next assay, the system named is hypertensive model rats. As to conditions: cited from earlier work.
For assay [2], the system named is New Zealand rabbits with normal intraocular pressure. Nature of the assay: Animal experiment, normal intraocular pressure model. Type of assay: in vivo. The note with it: normal IOP rabbits, 50 μL to the right eye, IOP at 0-10 h. As to the method: 24 male New Zealand rabbits were averagely divided into 4 groups, and were randomly assigned to respective groups using a computer randomized algorithm involving weight. From […] before the experiment, all rabbits were required to be trained to adapt to the operation of intraocular pressure (IOP) measurement, and the training was performed 3 times a day with an interval of about 3 h. The intraocular pressure was measured using a TonoVet tonometer, specifically, individual animals were fixed and the eye to be tested was placed at a position perpendicular to the TonoVet tonometer. The IOP should be measured at least 3 times in each operation until the reading became stable. The results from the last three stable measurements (±3 mmHg) were recorded and averaged to be used as the final IOP value. Respective compounds were weighed and dissolved with normal saline to the desired concentration. At the beginning of the experiment, individual compounds of the invention, reference compound K115 or negative control solvent (50 μL) were administered to the right eye of each animal, and the left eye of each animal was treated by normal saline. The IOP was measured at time points Pre (0 h), 1 h, 2 h, 4 h, 6 h, 8 h and 10 h after the administration of drugs, and the data obtained at respective time points was analyzed by student-t test. The curve of IOP over time was analyzed using the ANOVA test, where a P value of less than 0.05 will be considered to be of statistical significance and the data was expressed by mean±standard deviation.

Assay [3] concerns New Zealand rabbits with high intraocular pressure. Nature of the assay: Animal experiment, high intraocular pressure monocular model. Type of assay: in vivo. As to conditions: high IOP rabbits, 50 μL per eye three times a day (0, 3rd, 6th h), IOP at 0-8 h. As to the method:
10 male New Zealand rabbits were averagely divided into 2 groups and were randomly assigned to respective groups using a computer randomized algorithm involving weight. From 3 days to 1 day before the experiment, all rabbits were required to be trained to adapt to the operation of intraocular pressure (IOP) measurement, and the training was performed 3 times a day with an interval of about 3 h. The intraocular pressure was measured using a TonoVet tonometer, specifically, individual animals were fixed and the eye to be tested was placed at a position perpendicular to the TonoVet tonometer. The IOP should be measured at least 3 times in each operation until the reading became stable. The results from the last three stable measurements (±3 mmHg) were recorded and averaged to be used as the final IOP value. Respective compounds were weighed and dissolved with normal saline to the desired concentration. Before the induction of high intraocular pressure, the intraocular pressure values of both eyes were measured and used as the basic intraocular pressure value. […] The IOP was measured respectively 0, 1, 2, 3, 4, 6 and 8 h after the injection. The results obtained at individual time points were analyzed by student-t test, and the variation curve of IOP over time was analyzed using ANOVA test. […]

Chain of ROCK2 (O75116 whole entry): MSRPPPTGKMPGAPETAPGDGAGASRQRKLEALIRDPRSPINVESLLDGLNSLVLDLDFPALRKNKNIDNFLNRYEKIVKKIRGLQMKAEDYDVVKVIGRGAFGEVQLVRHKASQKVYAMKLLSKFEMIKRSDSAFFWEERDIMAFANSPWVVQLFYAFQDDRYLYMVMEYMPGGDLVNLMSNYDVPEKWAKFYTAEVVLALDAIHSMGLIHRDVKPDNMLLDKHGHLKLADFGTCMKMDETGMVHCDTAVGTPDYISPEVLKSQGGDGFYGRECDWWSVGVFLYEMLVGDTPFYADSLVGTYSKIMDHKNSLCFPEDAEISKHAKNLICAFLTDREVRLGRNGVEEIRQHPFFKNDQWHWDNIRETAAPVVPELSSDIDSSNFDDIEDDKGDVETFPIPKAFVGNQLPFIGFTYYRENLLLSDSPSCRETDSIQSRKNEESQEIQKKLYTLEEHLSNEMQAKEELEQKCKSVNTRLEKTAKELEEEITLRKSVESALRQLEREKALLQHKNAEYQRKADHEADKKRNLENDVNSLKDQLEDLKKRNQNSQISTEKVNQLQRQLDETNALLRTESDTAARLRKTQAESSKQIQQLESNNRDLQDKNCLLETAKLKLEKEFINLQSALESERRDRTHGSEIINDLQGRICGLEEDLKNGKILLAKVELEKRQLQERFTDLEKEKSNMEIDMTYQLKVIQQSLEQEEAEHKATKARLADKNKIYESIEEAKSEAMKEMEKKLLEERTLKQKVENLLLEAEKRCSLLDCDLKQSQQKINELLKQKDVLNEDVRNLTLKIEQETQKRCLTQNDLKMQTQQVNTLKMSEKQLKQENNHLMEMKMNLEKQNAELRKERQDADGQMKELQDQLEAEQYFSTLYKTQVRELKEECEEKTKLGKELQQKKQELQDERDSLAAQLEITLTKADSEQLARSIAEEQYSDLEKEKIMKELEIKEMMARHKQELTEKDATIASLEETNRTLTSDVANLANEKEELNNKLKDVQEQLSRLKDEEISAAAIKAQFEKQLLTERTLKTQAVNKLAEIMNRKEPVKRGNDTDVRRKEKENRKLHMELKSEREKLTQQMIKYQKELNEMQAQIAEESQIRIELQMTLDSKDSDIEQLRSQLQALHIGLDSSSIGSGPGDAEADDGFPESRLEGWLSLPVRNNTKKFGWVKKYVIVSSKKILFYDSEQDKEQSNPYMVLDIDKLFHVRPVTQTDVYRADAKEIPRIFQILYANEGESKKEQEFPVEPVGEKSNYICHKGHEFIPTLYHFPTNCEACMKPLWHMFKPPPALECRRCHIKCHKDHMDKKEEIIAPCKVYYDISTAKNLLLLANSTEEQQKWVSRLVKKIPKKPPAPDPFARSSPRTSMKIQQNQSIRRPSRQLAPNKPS

For orientation: IC50 means the concentration that inhibits the measured activity by half. With `CCOC(=O)c1cc(-c2cccc(C(CCN)NC(=O)c3ccc4cnccc4c3)c2)cs1` (stereo not shown) [Compound 7, ethyl 4-(3-(3-amino-1-(isoquinoline-6-formamide)propyl)phenyl)thiophene-2-carboxylate], the IC50 was less than 100 nM on ROCK2 and 250 to 1000 nM in assay [1].
The matching figures for `NC[C@@H](NC(=O)c1ccc2cnccc2c1)c1ccccc1` [Compound 1, N—((S)-2-amino-1-phenyl-ethyl)isoquinoline-6-carboxamide]: less than 100 nM and 250 to 1000 nM.
Turning to `NC[C@@H](NC(=O)c1ccc2cnccc2c1)c1ccc(CO)cc1` [Compound 3, (S)—N-(2-amino-1-(4-(hydroxymethyl)phenyl)ethyl)isoquinoline-6-formamide], the IC50 at ROCK2 lay in the range of 100 to 500 nM.
Regarding `CN(C)C[C@@H](NC(=O)c1ccc2cnccc2c1)c1cccc(Cl)c1` [Compound 16, N—((S)-2-(dimethylamino)-1-(3-chlorophenyl)ethyl)isoquinoline-6-carboxamide], in assay [1], the IC50 was in the range of 250 to 1000 nM.
As to `C[C@@H](N)[C@H]1CC[C@H](C(=O)Nc2ccncc2)CC1` [Compound Y-27632], the “blood pressure of control rats” value in the assay on hypertensive model rats (control rats) is on record as “fails to show significant effects on the blood pressure”. Moreover, in the assay on hypertensive model rats (spontaneous, renal and deoxycorticosterone acetate-induced hypertension), the “blood pressure of hypertensive model rats” value was “significantly lowering the blood pressure”.
Take `CN1CC(C(NC(=O)c2ccc3cnccc3c2)c2ccccc2)C1` (stereo not shown) [Compound 10, N-((1-methylazetidin-3-yl)-benzyl)isoquinoline-6-carboxamide]: the IC50 on ROCK2 was less than 100 nM; in assay [1] it was 250 to 1000 nM.
Regarding `O=C(N[C@@H](c1ccccc1)[C@@H]1CCNC1)c1ccc2cnccc2c1` [Compound 11b, N—((R)-phenyl-((R)-pyrrolidin-3-yl)methyl)isoquinoline-6-carboxamide], the IC50 at ROCK2 was less than 100 nM.
Still for that read-out and setting: the result for `O=C(N[C@H](c1ccccc1)[C@H]1CCNC1)c1ccc2cnccc2c1` [Compound 14a, N—((S)-phenyl-((S)-pyrrolidin-3-yl)methyl)isoquinoline-6-carboxamide] reads 100 to 500 nM.
Take `COc1cccc([C@@H](CN(C)C)NC(=O)c2ccc3cnccc3c2)c1` [Compound 15, N—((S)-2-(dimethylamino)-1-(3-methoxyphenyl)ethyl)isoquinoline-6-carboxamide]: the IC50 on ROCK2 was less than 100 nM; in assay [1] it was 250 to 1000 nM.
For `CN(C)CCC(NC(=O)c1ccc2cnccc2c1)c1ccccc1` (stereo not shown) [Compound 8, N-(3-(dimethylamino)-1-phenyl-propyl)isoquinoline-6-formamide], in that order: less than 100 nM and more than 1000 nM.
For `O=C(NC(c1ccccc1)C1CNC1)c1ccc2cnccc2c1` (stereo not shown) [Compound 9, N-(azetidin-3-yl-benzyl)isoquinoline-6-carboxamide], the IC50 on ROCK2 was less than 100 nM; in assay [1], 250 to 1000 nM.
In the case of `NCCC(NC(=O)c1ccc2cnccc2c1)c1cccc(Cl)c1` (stereo not shown) [Compound 6, N-(3-amino-1-(3-chlorophenyl)propyl)isoquinoline-6-carboxamide], the IC50 on ROCK2 is less than 100 nM; in assay [1] it was less than 250 nM.
As for `Cc1ccc(C(=O)OCc2ccc([C@@H](CN)NC(=O)c3ccc4cnccc4c3)cc2)c(C)c1` [Compound 4, (S)-4-(2-amino-1-(isoquinoline-6-formamido)ethyl)benzyl 2,4-dimethylbenzoate], the figures for the IC50 (at ROCK2; in assay [1]) were 100 to 500 nM and more than 1000 nM, respectively.
Turning to `O=C(N[C@H](c1ccccc1)[C@@H]1CCNC1)c1ccc2cnccc2c1` [Compound 11a, N—((S)-phenyl-((R)-pyrrolidin-3-yl)methyl)isoquinoline-6-carboxamide], at ROCK2, the IC50 is less than 100 nM. In assay [1], the IC50 fell in the range of 250 to 1000 nM. In assay [2], the “acting time compared to K115” value was “a longer acting time” and the “intraocular pressure-reducing activity compared to K115” value was “a similar intraocular pressure-reducing activity”. Besides, the “effect on alleviating high intraocular pressure” value in assay [3] is reported as “a good effect on alleviating high intraocular pressure”.
As for `O=C(N[C@@H](c1ccccc1)[C@H]1CCNC1)c1ccc2cnccc2c1` [Compound 14b, N—((R)-phenyl-((S)-pyrrolidin-3-yl)methyl)isoquinoline-6-carboxamide], on ROCK2, the IC50 is less than 100 nM.
With `CN(C)C[C@@H](NC(=O)c1ccc2cnccc2c1)c1ccccc1` [Compound 5, N-((1S)-2-(dimethylamino)-1-phenyl-ethyl)isoquinoline-6-formamide], at ROCK2, the IC50 is less than 100 nM. For the same molecule, the concentration for half-maximal inhibition (IC50) in assay [1] is 250 to 1000 nM. Further, in assay [2], the “acting time compared to K115” value is “a longer acting time” and the “intraocular pressure-reducing activity compared to K115” value is “a similar intraocular pressure-reducing activity”.
Regarding `CN1CC[C@@H]([C@H](NC(=O)c2ccc3cnccc3c2)c2ccccc2)C1` [Compound 13, N—((S)—((R)-1-methylpyrrolidin-3-yl)(phenyl)methyl)isoquinoline-6-carboxamide], the IC50 was less than 100 nM at ROCK2 and 250 to 1000 nM in assay [1].
As for `CN1CC[C@@H]([C@@H](NC(=O)c2ccc3cnccc3c2)c2ccccc2)C1` [Compound 12, N—((R)—((R)-1-methylpyrrolidin-3-yl)(phenyl)methyl)isoquinoline-6-carboxamide], the IC50 at ROCK2 is less than 100 nM.
As for `NC[C@@H](NC(=O)c1ccc2cnccc2c1)c1cccc(Br)c1` [Compound 2, (S)—N-(2-amino-1-(3-bromophenyl)ethyl)isoquinoline-6-carboxamide], the IC50 is less than 100 nM on ROCK2 and less than 250 nM in assay [1].
